In patent publication EP1984353B1, “AURORA KINASE MODULATORS AND METHOD OF USE” (Amgen, Inc, priority 2006, dated 2007):
Like-named read-outs stand apart in the source and are kept apart here.

What was measured:
AuroraA-TPX2 = biological target: T1, AuroraA-TPX2 (Homo sapiens, UniProt O14965); assay: AuroraA-TPX2 Homogeneous Time Resolved Fluorescent (HTRF) kinase assay; format: biochemical
T1 construct: 20 µL of AuroraA-TPX2 KD GST; GST
T1 sequence (O14965 133-383 limits assumed): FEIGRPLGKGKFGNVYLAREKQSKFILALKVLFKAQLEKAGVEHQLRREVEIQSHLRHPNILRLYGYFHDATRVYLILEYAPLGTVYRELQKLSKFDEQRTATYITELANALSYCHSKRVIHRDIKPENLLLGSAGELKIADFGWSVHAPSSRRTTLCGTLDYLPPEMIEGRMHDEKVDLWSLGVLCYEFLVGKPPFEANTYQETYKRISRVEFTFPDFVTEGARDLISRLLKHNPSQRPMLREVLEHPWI
T1 sequence (Q9ULW0 1-43 partner limits assumed): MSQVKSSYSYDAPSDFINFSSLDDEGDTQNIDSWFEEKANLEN
Protocol: AuroraA-TPX2-Homogeneous Time Resolved Fluorescent (HTRF) Kinase Assay:
The Aurora-A HTRF assay begins with Aurora-A in the presence of ATP phosphorylating the biotinylated peptide PLK. The reaction incubates for about 120 min. Detection reagents are added to quench the reaction. These agents stop the reaction by diluting out the enzyme and chelating the metals due to the presence of EDTA. After addition, the assay is incubated overnight to allow the detection reagents to equilibrate.
The final concentration of PLK is about 1 µM. […] Buffer conditions are as follows: 60mM HEPES pH 7.5, 25mM NaCl, 10mM MgCl, 2mM DTT, 0.05% BSA.
(§1) The assay is quenched and stopped with 160 µL, of detection reagent. Detection reagents are as follows: Buffer made of 50mM Tris, pH 7.5, 100mM NaCl, 3mM EDTA, 0.05% BSA, 0.1% Tween20. Added to this buffer prior to reading is Steptavidin allophycocyanin (SA-APC) at a final conc in the assay of 0.0005 mg/mL, and europilated anti-phosphoPLK Ab (Eu-anti-PLK) at a final conc of 0.02 nM.
The assay plate is read in either a Discovery or a RubyStar. The eu-anti-PLK is excited at 320 nm and emits at 615 nm to excite the SA-APC which in turn emits at 655 nm.

AuroraB = biological target: T2, AuroraB (Homo sapiens, UniProt Q96GD4); assay: AuroraB Homogeneous Time Resolved Fluorescent (HTRF) kinase assay; format: biochemical; conditions: average, read-out: AurB_ _IC50_IP (Avg)
T2 construct: 20 µL of AuroraB FL His; His
T2 sequence (Q96GD4 whole entry): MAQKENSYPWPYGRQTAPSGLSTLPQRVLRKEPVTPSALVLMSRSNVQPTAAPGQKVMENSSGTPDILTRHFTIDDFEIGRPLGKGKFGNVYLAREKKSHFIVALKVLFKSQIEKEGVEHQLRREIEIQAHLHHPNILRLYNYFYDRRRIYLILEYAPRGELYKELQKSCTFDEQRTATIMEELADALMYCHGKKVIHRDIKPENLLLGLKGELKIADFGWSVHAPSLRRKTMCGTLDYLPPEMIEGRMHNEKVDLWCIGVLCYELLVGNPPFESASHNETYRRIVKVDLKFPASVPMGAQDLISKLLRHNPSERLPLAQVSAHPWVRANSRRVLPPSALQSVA
Protocol: AuroraB-Homogeneous Time Resolved Fluorescent (HTRF) Kinase Assay:
The AuroraB HTRF assay begins with AuroraB in the presence of ATP phosphorylating the biotinylated peptide Histone H3. The reaction incubates for about 90 min. the reaction is quentched by addition of detection reagents, which stop the reaction by diluting out the enzyme and chelating the metals due to the presence of EDTA. After addition, the assay is incubated for about 60 min to allow detection reagents to equilibrate.
The AuroraB HTRF assay comprises 1 µL of compound in 100% DMSO, 20 µL of ATP and biotinylated Histone H3, and 20 µL of AuroraB FL His for a final volume of 41 µL. The final concentration of Histone H3 is 0.1 µM. The final concentration of ATP is 23 µM (Km(app) = 23 µM+/-2.6) and the final concentration of AuroraB is 400 pM. Buffer conditions are as follows: 50mM HEPES pH 7.5, 5mM NaCl, 0.5mM MgCl, 0.5mM MnCl, 2mM DTT, 0.05% BSA.
as §1, with “µL” for “µL,”, “0.001” for “0.0005”, “anti-phosphoHistoneH3” for “anti-phosphoPLK”, “(Eu-anti-HisH3)” for “(Eu-anti-PLK)”, “0.064” for “0.02”
The assay plate is read in either a Discovery or a RubyStar. The eu-anti-HisH3 is excited at 320 nm and emits at 615 nm to excite the SA-APC which in turn emits at 655 nm. The ratio of SA-APC at 655 nm (excited due to close proximity to the Eu-anti-HisH3 because of phosphorylation of the peptide) to free Eu-anti-HisH3 at 615 nm will give substrate phosphorylation.

[1] = average, given as class symbols, read-out: AurA/TP X2_ IC50_IP (Avg)
[2] = average, given as numbers, unit inferred, read-out: AurA/TP X2_ IC50_IP (Avg)
[3] = given as numbers, unit inferred
[4] = read-out: average inhibitory activity (IC50) in the Aurora kinase A HTRF assay

| Compound | IC50 (AuroraA-TPX2; [1]) [nM] | IC50 (AuroraB; given as class symbols) [nM] | other results |
| --- | --- | --- | --- |
| N-(4-((3-(2-amino-4-pyrimidinyl)-2-pyridinyl)oxy)phenyl)-4-ethyl-6-phenyl-3-pyridazinamine [compound 435] | ≤ 100 | ≤ 100 | – |
| Cc1cc(-c2nnc(Nc3ccc(Oc4ncccc4-c4ccnc(N)n4)cc3)c3ccccc23)sn1 [compound 251, N-(4-((3-(2-amino-4-pyrimidinyl)-2-pyridinyl)oxy)phenyl)-4-(3-methyl-5-isothiazolyl)-1-phthalazinamine] | – | – | IC50 (AuroraA-TPX2; [2]): 16 nM; IC50 (AuroraB; [3]): 0.4 nM |
| Nc1nccc(-c2cccnc2Oc2ccc(Nc3nnc(-c4ccccc4OP(=O)(O)O)c4ccccc34)cn2)n1 [compound 391, 2-(4-((6-((3-(2-amino-4-pyrimidinyl)-2-pyridinyl)oxy)-3-pyridinyl)amino)-1-phthalazinyl)phenyl dihydrogen phosphate] | – | – | IC50 (AuroraA-TPX2; [2]): 1600 nM; IC50 (AuroraB; [3]): 641 nM |
| Cc1csc(-c2nnc(Nc3ccc(Oc4ncccc4-c4ccnc(NCCCO)n4)cc3)c3ccccc23)n1 [compound 359, 3-((4-(2-((4-((4-(4-methyl-1,3-thiazol-2-yl)-1-phthalazinyl)amino)phenyl)oxy)-3-pyridinyl)-2-pyrimidinyl)amino)-1-propanol] | ≤ 100 | ≤ 100 | – |
| CCc1cc(-c2ccccc2)nnc1Nc1ccc(Oc2ncccc2-c2ccnc(NCCCN3CCCC3)n2)cc1 [compound 459, 4-ethyl-6-phenyl-N-(4-((3-(2-((3-(1-pyrrolidinyl)propyl)amino)-4-pyrimidinyl)-2-pyridinyl)oxy)phenyl)-3-pyridazinamine] | 100 to 500 | ≤ 100 | – |
| Cc1cccc(-c2nnc(Nc3ccc(Oc4ncccc4-c4ccnc(N)n4)nc3)c3ccccc23)n1 [compound 270, N-(6-((3-(2-amino-4-pyrimidinyl)-2-pyridinyl)oxy)-3-pyridinyl)-4-(6-methyl-2-pyridinyl)-1-phthalazinamine] | ≤ 100 | ≤ 100 | – |
| CC1CN(c2nnc(Nc3ccc(Oc4ncccc4-c4ccnc(N)n4)cc3)c3ccccc23)CCN1C (centres unmarked) [compound 395, N-(4-((3-(2-amino-4-pyrimidinyl)-2-pyridinyl)oxy)phenyl)-4-(3,4-dimethyl-1-piperazinyl)-1-phthalazinamine] | ≤ 100 | ≤ 100 | – |
| Oc1nccc(-c2cccnc2Oc2ccc(Nc3nnc(-c4ccccc4)c4ccccc34)cc2)n1 [compound 325, 4-(2-((4-((4-phenyl-1-phthalazinyl)amino)phenyl)oxy)-3-pyridinyl)-2-pyrimidinol] | 500 to 2500 | – | – |
| Nc1nccc(-c2cccnc2Oc2ccc(Nc3nnc(-c4ccccc4CO)c4ccccc34)cn2)n1 [compound 385, (2-(4-((6-((3-(2-amino-4-pyrimidinyl)-2-pyridinyl)oxy)-3-pyridinyl)amino)-1-phthalazinyl)phenyl)methanol] | 100 to 500 | ≤ 100 | – |
| c1ccc(-c2nnc(Nc3ccc(Oc4ncccc4-c4ccnc5c4CCCN5)cc3)c3ccccc23)cc1 [compound 283, 4-phenyl-N-(4-((3-(5,6,7,8-tetrahydro-1,8-naphthyridin-4-yl)-2-pyridinyl)oxy)phenyl)-1-phthalazinamine] | 500 to 2500 | 100 to 500 | – |
| c1ccc(-c2nnc(Nc3ccc(Oc4ncccc4-c4ccnc5c4CCN5)cc3)c3ccccc23)cc1 [compound 287, N-(4-((3-(2,3-dihydro-1H-pyrrolo[2,3-b]pyridin-4-yl)-2-pyridinyl)oxy)phenyl)-4-phenyl-1-phthalazinamine] | – | – | IC50 (AuroraA-TPX2; [2]): 83.3 nM; IC50 (AuroraB; [3]): 10.3 nM |
| COc1ccc(F)c(-c2nnc(Nc3ccc(Oc4ncccc4-c4ccnc(N)n4)cc3)c3ccccc23)c1 [compound 372, N-(4-((3-(2-amino-4-pyrimidinyl)-2-pyridinyl)oxy)phenyl)-4-(2-fluoro-5-(methyloxy)phenyl)-1-phthalazinamine] | ≤ 100 | ≤ 100 | – |
| COc1ccc(F)c(-c2nnc(Nc3ccc(Oc4ncccc4-c4ccnc(N)n4)nc3)c3ccccc23)c1 [compound 376, N-(6-((3-(2-amino-4-pyrimidinyl)-2-pyridinyl)oxy)-3-pyridinyl)-4-(2-fluoro-5-(methyloxy)phenyl)-1-phthalazinamine] | ≤ 100 | ≤ 100 | – |
| CNc1cc(-c2cccnc2Oc2ccc(Nc3nnc(-c4ccc(F)cc4)c4ccccc34)cn2)ccn1 [Example 60, 2-((5-((4-(4-fluorophenyl)-1-phthalazinyl)amino)-2-pyridinyl)oxy)-N-methyl-3,4'-bipyridin-2'-amine] | – | – | IC50 (AuroraA-TPX2; [4]): < 500 nM |
| COc1ccc(CNc2cc(-c3ccccc3Oc3ncc(Nc4nnc(-c5ccccc5)c5ccccc45)cn3)ccn2)cc1 [compound 290, N-(2-((2-(2-(((4-(methyloxy)phenyl)methyl)amino)-4-pyridinyl)phenyl)oxy)-5-pyrimidinyl)-4-phenyl-1-phthalazinamine] | – | 500 to 2500 | – |
| Nc1nccc(-c2cccnc2Oc2ccc(Nc3nnc(N4CCCCC4)c4ccccc34)cc2)n1 [Example 67, N-(4-((3-(2-amino-4-pyrimidinyl)-2-pyridinyl)oxy)phenyl)-4-(1-piperidinyl)-1-phthalazinamine] | – | – | IC50 (AuroraA-TPX2; [4]): < 500 nM |
| c1ccc(-c2nnc(Nc3ccc(Oc4ncccc4-c4ccnc5[nH]ccc45)cc3)c3ccccc23)cc1 [Example 61, 4-phenyl-N-(4-((3-(1H-pyrrolo[2,3-b]pyridin-4-yl)-2-pyridinyl)oxy)phenyl)-1-phthalazinamine] | – | – | IC50 (AuroraA-TPX2; [4]): < 500 nM |
| Nc1nccc(-c2cccnc2Oc2ccc(Nc3nnc(-c4cccc(CNCCO)c4)c4ccccc34)cc2)n1 [compound 413, 2-(((3-(4-((4-((3-(2-amino-4-pyrimidinyl)-2-pyridinyl)oxy)phenyl)amino)-1-phthalazinyl)phenyl)methyl)amino)ethanol] | – | ≤ 100 | – |
| Cc1csc(-c2cc(C)c(Nc3ccc(Oc4ncccc4-c4ccnc5c4CCCN5)cc3)nn2)n1 [compound 286, 4-methyl-6-(4-methyl-1,3-thiazol-2-yl)-N-(4-((3-(5,6,7,8-tetrahydro-1,8-naphthyridin-4-yl)-2-pyridinyl)oxy)phenyl)-3-pyridazinamine] | – | 500 to 2500 | – |
| c1ccc(-c2nnc(Nc3ccc(Oc4ncccc4-c4ccnc(N5CCC5)n4)cc3)c3ccccc23)cc1 [compound 294, N-(4-((3-(2-(1-azetidinyl)-4-pyrimidinyl)-2-pyridinyl)oxy)phenyl)-4-phenyl-1-phthalazinamine] | – | ≤ 100 | – |
| C[C@H]1CN(c2nnc(Nc3ccc(Oc4ncccc4-c4ccnc(N)n4)cc3)c3ccccc23)CCN1 [compound 398, N-(4-((3-(2-amino-4-pyrimidinyl)-2-pyridinyl)oxy)phenyl)-4-((3S)-3-methyl-1-piperazinyl)-1-phthalazinamine] | – | 100 to 500 | – |
| Nc1nccc(-c2cccnc2Oc2ccc(Nc3nnc(N4CCC(CO)CC4)c4ccccc34)cc2)n1 [compound 353, (1-(4-((4-((3-(2-amino-4-pyrimidinyl)-2-pyridinyl)oxy)phenyl)amino)-1-phthalazinyl)-4-piperidinyl)methanol] | – | ≤ 100 | – |
| CNc1nccc(-c2cccnc2Oc2ccc(Nc3nnc(N4CCCCC4)c4ccccc34)cn2)n1 [Example 68, N-(6-((3-(2-(methylamino)-4-pyrimidinyl)-2-pyridinyl)oxy)-3-pyridinyl)-4-(1-piperidinyl)-1-phthalazinamine] | – | – | IC50 (AuroraA-TPX2; [4]): < 500 nM |
